# From paper PMC3445516 (PLoS ONE, 2012)
# Like-named read-outs stand apart in the source and are kept apart here.
# How the values were obtained:
# Assay in all cases: Ambit kinase profiling, competition binding
# [1] = target: T1, ACVRL1 (Homo sapiens, UniProt P37023)
# T1 construct: purchased Ambit Biosciences (KINOMEscan)
# Method: (§1) Also included in the kinase profile are four isoforms of PKC (δ, ε, η, θ) and eight isoforms of CAMKs (CAMKIα, δ, γ; CAMKIIα, β, δ, γ; CAMK4).
# (§2) The global kinase profiling experiment was performed by Ambit Biosciences.
# [2] = target: T2, HPK1 (Homo sapiens, UniProt Q92918)
# T2 construct: purchased Ambit Biosciences (KINOMEscan)
# T2 sequence (Q92918 whole entry): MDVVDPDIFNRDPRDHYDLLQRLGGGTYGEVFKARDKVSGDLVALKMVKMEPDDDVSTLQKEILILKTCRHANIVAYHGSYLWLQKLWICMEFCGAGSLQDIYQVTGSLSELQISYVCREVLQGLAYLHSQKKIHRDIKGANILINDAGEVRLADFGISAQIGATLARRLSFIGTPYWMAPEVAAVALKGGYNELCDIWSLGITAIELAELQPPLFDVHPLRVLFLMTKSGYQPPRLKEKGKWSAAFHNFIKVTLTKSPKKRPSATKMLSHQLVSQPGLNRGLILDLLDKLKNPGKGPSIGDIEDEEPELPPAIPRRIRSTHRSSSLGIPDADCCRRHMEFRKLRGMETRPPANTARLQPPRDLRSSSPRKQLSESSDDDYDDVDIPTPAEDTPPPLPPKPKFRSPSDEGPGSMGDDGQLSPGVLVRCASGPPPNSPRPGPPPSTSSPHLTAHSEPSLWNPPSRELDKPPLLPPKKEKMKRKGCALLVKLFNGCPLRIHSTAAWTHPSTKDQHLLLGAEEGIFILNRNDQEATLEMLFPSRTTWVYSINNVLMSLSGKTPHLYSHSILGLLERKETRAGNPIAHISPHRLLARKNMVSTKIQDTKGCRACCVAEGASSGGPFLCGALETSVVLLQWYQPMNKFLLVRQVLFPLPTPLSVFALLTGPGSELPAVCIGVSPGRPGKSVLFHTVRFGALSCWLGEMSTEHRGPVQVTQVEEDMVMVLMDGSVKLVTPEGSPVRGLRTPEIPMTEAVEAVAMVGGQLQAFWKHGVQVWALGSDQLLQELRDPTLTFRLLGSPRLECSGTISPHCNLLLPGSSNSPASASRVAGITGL
# Method: as §1, §2
# [3] = target: T3, GAK (Homo sapiens, UniProt O14976)
# T3 construct: purchased Ambit Biosciences (KINOMEscan)
# T3 sequence (O14976 1-1311): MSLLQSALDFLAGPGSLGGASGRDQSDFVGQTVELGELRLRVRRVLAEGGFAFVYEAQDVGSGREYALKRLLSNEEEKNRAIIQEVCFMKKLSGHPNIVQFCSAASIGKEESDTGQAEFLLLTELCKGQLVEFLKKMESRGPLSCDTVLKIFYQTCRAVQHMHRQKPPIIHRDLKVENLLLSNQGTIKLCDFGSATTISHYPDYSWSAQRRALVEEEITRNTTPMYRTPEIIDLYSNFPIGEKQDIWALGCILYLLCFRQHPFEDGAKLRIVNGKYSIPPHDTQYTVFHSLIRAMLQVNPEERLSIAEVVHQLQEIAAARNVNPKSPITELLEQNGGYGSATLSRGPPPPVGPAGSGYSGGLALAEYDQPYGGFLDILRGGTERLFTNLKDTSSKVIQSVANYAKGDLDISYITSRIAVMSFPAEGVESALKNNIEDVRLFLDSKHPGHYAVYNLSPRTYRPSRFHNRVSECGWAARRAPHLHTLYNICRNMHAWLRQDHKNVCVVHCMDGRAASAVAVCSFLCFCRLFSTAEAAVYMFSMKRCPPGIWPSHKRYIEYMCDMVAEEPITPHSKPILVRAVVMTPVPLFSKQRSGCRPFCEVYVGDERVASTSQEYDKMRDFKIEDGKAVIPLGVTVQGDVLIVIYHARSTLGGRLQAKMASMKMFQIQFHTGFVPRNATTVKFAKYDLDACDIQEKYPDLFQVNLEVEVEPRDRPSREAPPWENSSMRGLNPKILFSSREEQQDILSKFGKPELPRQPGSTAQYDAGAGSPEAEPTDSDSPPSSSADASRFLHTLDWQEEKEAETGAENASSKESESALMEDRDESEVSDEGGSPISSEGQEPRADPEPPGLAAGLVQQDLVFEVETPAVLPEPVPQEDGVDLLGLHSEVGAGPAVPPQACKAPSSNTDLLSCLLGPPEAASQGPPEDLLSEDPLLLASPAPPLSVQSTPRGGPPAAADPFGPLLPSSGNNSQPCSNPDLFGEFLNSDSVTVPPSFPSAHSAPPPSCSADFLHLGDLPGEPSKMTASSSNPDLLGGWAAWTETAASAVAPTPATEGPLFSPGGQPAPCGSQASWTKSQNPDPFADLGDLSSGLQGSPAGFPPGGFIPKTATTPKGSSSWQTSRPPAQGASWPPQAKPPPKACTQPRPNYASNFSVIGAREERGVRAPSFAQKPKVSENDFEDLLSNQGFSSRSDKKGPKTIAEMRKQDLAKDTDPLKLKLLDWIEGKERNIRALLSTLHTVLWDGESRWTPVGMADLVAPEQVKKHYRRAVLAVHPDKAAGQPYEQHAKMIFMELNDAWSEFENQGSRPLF
# Method: as §1, §2
# [4] = target: T4, SLK (Homo sapiens, UniProt Q9H2G2)
# T4 construct: purchased Ambit Biosciences (KINOMEscan)
# T4 sequence (Q9H2G2 whole entry): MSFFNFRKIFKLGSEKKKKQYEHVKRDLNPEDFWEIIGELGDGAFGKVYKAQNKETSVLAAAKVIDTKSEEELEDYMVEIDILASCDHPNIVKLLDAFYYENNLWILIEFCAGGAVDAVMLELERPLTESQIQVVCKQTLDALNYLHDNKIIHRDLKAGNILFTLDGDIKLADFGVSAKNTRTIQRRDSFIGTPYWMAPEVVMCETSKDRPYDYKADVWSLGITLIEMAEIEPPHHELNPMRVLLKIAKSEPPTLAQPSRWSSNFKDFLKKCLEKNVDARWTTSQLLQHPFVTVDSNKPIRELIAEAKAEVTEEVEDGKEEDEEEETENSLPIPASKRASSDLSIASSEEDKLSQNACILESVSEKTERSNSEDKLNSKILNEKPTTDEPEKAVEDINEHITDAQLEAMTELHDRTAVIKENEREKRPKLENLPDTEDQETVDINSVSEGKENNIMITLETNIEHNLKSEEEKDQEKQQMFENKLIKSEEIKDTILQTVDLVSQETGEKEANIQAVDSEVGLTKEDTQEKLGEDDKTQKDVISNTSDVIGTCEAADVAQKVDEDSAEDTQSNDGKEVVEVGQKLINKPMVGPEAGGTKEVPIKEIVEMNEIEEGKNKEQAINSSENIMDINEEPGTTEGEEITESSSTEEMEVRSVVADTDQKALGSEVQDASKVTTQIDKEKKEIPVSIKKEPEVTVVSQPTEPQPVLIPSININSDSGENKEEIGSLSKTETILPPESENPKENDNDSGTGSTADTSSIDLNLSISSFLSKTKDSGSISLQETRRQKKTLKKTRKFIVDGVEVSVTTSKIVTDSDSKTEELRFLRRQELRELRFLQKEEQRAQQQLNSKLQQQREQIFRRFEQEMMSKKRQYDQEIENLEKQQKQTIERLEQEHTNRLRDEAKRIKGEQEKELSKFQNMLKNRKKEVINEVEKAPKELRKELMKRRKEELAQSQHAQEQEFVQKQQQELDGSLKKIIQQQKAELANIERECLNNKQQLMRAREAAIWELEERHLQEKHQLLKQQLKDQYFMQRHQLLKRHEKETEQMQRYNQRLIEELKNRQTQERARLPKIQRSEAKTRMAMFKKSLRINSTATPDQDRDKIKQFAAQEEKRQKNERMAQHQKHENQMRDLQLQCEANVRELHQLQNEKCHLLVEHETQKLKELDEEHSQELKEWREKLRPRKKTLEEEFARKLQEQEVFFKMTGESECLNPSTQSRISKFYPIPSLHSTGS
# Method: as §1, §2
# [5] = target: T5, EPHB3 (Homo sapiens, UniProt P54753)
# T5 construct: purchased Ambit Biosciences (KINOMEscan)
# T5 sequence (P54753 34-998): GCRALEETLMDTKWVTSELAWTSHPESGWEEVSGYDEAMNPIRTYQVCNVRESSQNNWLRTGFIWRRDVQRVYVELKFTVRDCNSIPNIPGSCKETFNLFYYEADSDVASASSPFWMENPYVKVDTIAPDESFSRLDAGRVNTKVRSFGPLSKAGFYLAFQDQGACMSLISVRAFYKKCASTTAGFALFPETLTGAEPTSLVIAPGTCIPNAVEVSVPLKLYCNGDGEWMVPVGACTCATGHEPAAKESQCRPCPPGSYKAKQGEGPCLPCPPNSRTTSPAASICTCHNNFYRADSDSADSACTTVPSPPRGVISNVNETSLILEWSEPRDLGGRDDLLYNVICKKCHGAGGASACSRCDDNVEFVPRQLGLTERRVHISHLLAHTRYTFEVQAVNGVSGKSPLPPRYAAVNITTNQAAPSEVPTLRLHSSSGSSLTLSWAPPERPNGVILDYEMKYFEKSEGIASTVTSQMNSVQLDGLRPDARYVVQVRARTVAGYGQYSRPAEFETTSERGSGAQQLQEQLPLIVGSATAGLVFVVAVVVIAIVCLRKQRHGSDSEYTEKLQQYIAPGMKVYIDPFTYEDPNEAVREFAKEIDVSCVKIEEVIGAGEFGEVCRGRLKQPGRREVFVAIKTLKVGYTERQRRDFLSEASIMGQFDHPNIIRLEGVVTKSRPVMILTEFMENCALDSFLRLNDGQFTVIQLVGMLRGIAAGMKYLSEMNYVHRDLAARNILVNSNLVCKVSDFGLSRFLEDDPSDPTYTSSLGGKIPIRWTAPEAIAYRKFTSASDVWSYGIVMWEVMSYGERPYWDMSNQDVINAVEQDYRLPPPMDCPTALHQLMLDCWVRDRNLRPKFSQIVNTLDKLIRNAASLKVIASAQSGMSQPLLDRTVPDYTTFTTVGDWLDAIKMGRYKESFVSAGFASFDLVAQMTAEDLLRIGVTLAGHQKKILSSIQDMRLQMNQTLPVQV
# Method: as §1, §2
# [6] = target: T6, DMPK2 (Homo sapiens, UniProt Q6DT37)
# T6 construct: purchased Ambit Biosciences (KINOMEscan)
# T6 sequence (Q6DT37 whole entry): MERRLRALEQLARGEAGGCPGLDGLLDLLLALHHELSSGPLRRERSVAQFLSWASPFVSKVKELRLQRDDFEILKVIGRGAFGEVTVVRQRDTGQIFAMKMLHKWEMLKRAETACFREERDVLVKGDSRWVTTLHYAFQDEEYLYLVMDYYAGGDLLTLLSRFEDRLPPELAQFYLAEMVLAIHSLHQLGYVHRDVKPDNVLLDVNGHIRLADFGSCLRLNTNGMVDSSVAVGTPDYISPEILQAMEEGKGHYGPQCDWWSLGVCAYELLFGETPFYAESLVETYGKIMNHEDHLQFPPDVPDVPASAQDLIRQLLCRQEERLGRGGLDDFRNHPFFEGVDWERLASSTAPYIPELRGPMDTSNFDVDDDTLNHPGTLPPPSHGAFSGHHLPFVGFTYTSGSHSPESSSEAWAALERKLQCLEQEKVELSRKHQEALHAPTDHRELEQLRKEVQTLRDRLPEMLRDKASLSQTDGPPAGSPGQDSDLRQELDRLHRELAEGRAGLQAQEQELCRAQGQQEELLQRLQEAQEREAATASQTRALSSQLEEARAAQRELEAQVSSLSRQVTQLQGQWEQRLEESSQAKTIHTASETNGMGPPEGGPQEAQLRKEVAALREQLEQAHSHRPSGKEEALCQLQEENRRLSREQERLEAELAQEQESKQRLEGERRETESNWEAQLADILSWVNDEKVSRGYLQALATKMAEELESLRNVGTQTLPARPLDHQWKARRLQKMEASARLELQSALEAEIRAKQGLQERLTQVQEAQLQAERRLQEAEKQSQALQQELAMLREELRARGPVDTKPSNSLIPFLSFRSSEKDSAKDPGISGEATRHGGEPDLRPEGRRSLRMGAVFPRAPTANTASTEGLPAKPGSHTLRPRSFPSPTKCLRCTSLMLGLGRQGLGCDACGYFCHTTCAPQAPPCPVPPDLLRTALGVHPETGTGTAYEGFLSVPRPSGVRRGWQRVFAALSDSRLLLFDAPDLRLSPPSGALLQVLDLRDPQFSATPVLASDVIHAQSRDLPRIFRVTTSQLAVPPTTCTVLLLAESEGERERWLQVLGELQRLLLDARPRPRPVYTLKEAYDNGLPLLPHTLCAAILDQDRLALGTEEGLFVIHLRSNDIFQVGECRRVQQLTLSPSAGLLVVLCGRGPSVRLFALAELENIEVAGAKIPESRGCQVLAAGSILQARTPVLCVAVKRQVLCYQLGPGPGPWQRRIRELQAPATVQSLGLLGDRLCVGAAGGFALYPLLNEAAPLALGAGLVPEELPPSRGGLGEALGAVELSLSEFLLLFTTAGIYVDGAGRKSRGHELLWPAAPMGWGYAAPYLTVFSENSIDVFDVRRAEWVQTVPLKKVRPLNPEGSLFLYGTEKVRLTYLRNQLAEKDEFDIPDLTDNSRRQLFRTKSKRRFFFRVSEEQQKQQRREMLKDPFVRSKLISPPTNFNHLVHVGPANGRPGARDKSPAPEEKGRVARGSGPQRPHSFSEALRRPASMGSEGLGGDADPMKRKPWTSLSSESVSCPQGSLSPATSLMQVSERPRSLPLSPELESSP
# Method: as §1, §2
# [7] = target: T7, PRKCQ (Homo sapiens, UniProt Q04759)
# T7 construct: purchased Ambit Biosciences (KINOMEscan)
# T7 sequence (Q04759 whole entry): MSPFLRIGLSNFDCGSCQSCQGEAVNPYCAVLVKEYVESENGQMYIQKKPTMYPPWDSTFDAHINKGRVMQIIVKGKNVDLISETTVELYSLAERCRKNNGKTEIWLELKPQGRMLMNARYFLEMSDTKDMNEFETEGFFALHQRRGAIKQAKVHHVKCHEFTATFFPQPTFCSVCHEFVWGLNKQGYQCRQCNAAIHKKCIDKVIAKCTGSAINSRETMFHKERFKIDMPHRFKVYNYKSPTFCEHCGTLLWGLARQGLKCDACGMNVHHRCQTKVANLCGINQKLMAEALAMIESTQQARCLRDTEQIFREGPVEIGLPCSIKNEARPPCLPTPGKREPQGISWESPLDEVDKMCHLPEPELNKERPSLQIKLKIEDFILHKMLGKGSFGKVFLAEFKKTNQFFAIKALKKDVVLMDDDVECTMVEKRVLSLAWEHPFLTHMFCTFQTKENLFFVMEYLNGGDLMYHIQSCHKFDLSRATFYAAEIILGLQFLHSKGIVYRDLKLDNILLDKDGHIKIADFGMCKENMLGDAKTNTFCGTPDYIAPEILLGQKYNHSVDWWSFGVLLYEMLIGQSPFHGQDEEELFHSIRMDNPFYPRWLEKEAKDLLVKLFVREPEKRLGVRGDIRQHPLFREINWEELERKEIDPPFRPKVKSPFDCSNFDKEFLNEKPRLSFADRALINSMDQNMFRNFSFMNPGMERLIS
# Method: as §1, §2
# T1 sequence (P37023 22-503): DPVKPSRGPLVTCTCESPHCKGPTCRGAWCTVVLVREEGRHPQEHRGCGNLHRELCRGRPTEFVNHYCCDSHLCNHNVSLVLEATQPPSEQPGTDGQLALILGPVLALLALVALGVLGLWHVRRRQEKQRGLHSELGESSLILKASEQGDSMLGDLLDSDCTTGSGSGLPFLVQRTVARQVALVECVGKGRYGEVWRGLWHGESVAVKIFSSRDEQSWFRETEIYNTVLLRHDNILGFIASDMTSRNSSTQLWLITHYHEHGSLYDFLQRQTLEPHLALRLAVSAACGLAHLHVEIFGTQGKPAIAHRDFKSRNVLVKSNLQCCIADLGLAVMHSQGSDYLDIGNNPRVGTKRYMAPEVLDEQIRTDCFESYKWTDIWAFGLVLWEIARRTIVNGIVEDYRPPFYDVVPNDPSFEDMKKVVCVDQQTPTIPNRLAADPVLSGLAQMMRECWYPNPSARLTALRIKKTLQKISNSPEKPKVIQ
structure (smiles),measurement,setting,value
Fc1ccc(-c2c(-c3ccncc3)[nH]c3nccnc23)cc1 [Compound 122],inhibition at 10 µM,"[1]; ACVRL1, 10 µM, read-out: % Competition",83%
same,inhibition at 10 µM,"[2]; HPK1, 10 µM, read-out: % Competition",67%
same,inhibition at 10 µM,"[3]; GAK, 10 µM, read-out: % Competition",98%
same,inhibition at 10 µM,"[4]; SLK, 10 µM, read-out: % Competition",80%
same,inhibition at 10 µM,"[5]; EPHB3, 10 µM, read-out: % Competition",82%
same,inhibition at 10 µM,"[6]; DMPK2, 10 µM, read-out: % Competition",100%
same,inhibition at 10 µM,"[7]; PRKCQ (PKC θ), 10 µM, read-out: % Competition",78%
CC(O)CNc1cc(-c2[nH]c3cccnc3c2-c2ccc(F)cc2)ccn1 (stereo not shown) [Compound 140],inhibition at 10 µM,[1]; read-out: % Competition,< 50%
same,inhibition at 10 µM,[2]; read-out: % Competition,< 50%
same,inhibition at 10 µM,[3]; read-out: % Competition,98%
same,inhibition at 10 µM,[4]; read-out: % Competition,< 50%
same,inhibition at 10 µM,[5]; read-out: % Competition,< 50%
same,inhibition at 10 µM,[6]; read-out: % Competition,74%
same,% Competition,"[7]; PRKCQ (PKC θ), 10 µM",<50%
same,inhibition at 10 µM,[7]; read-out: % Competition,< 50%
Fc1ccc(-c2c(-c3ccncc3)[nH]c3nccnc23)cc1 [RO1155697-000-005],inhibition at 10 µM,"[1]; ACVRL1, compound concentration 10 uM, read-out: Percent Competition",83%
same,inhibition at 10 µM,"[2]; HPK1, compound concentration 10 uM, read-out: Percent Competition",67%
same,inhibition at 10 µM,"[3]; GAK, compound concentration 10 uM, read-out: Percent Competition",98%
same,inhibition at 10 µM,"[4]; SLK, compound concentration 10 uM, read-out: Percent Competition",80%
same,inhibition at 10 µM,"[5]; EPHB3, compound concentration 10 uM, read-out: Percent Competition",82%
same,inhibition at 10 µM,"[6]; DMPK2, compound concentration 10 uM, read-out: Percent Competition",100%
same,inhibition at 10 µM,"[7]; PRKCQ, compound concentration 10 uM, read-out: Percent Competition",78%
